row,Structure (SMILES),melting point
1,"CS(=O)(=O)N[C@H]1CC[C@H](Nc2nccc(-n3ncc4c(OCCO)cccc43)n2)CC1 [Compound 141, N-(4-{4-[4-(2-hydroxy-ethoxy)-indazol-1-yl]-pyrimidin-2-ylamino}-cyclohexyl)-methane-sulfonamide]",268.1 to 269.1 °C
2,"CCCOc1cccc2c1cnn2-c1ccnc(N[C@H]2CC[C@H](NS(C)(=O)=O)CC2)n1 [Compound 142, N-{4-[4-(4-propoxy-indazol-1-yl)-pyrimidin-2-ylamino]-cyclohexyl}-methanesulfonamide]",253 to 254 °C
3,"O=C([C@H]1CC[C@H](Nc2nccc(-n3ncc4c(OCCCO)cccc43)n2)CC1)N1CCCC1 [Compound 144, (4-{4-[4-(3-hydroxy-propoxy)-indazol-1-yl]-pyrimidin-2-ylamino}-cyclohexyl)-pyrrolidin-1-ylmethanone]",187.5 to 188.5 °C
4,"CN(C)S(=O)(=O)N[C@H]1CC[C@H](Nc2nccc(-n3ncc4c(OCCCO)cccc43)n2)CC1 [Compound 145, N-(N′,N′-dimethylsulfonamido) N-(4-{4-[4-(3-hydroxy-propoxy)-indazol-1-yl]-pyrimidin-2-ylamino}-cyclohexyl) amine]",248 to 250 °C
5,"CN(C)C(=O)[C@H]1CC[C@H](Nc2nccc(-n3ncc4c(OCc5ccccn5)cccc43)n2)CC1 [Compound 150, 4-{4-[4-(pyridine-2-yl-methoxy)-indazol-1-yl]-pyrimidin-2-ylamino}-cyclohexanecarboxylic acid dimethylamide]",217.3 to 219 °C
6,"O=C([C@H]1CC[C@H](Nc2nccc(-n3ncc4c(OCCO)cccc43)n2)CC1)N1CCCC1 [Compound 151, (4-{4-[4-(2-hydroxy-ethoxy)-indazol-1-yl]-pyrimidin-2-ylamino}-cyclohexyl)-pyrrolidin-1-ylmethanone]",164 to 166 °C
7,"CS(=O)(=O)CCCOc1cccc2c1cnn2-c1ccnc(N[C@H]2CC[C@H](C(=O)N3CCCC3)CC2)n1 [Compound 155, (4-{4-[4-(3-methane-sulfonyl-propoxy)-indazol-1-yl]-pyrimidin-2-ylamino}-cyclohexyl)-pyrrolidin-1-ylmethanone]",183.4 to 184.5 °C
8,"CS(=O)(=O)CCCOc1cccc2c1cnn2-c1ccnc(N[C@H]2CC[C@H](NS(C)(=O)=O)CC2)n1 [Compound 156, N-(4-{4-[4-(3-methane-sulfonyl-propoxy)-indazol-1-yl]-pyrimidin-2-ylamino}-cyclohexyl)-methanesulfonamide]",247 to 248 °C
9,"CN([C@H]1CC[C@H](Nc2nccc(-n3ncc4c(OCCCS(C)(=O)=O)cccc43)n2)CC1)S(C)(=O)=O [Compound 158, N-(4-{4-[4-(3-methane-sulfonyl-propoxy)-indazol-1-yl]-pyrimidin-2-ylamino}-cyclohexyl)-N-methyl-methane-sulfonamide]",208.8 to 209.6 °C
10,"CCCCOc1cccc2c1cnn2-c1ccnc(N[C@H]2CC[C@H](O)CC2)n1 [Compound 168, 4-[4-(4-butoxy-indazol-1-yl)-pyrimidin-2-yl-amino]-cyclohexanol]",195 to 196 °C
11,"CC(C)COc1cccc2c1cnn2-c1ccnc(N[C@H]2CC[C@H](O)CC2)n1 [Compound 169, 4-[4-(4-isobutoxy-indazol-1-yl)-pyrimidin-2-ylamino]-cyclohexanol]",189.3 to 190.3 °C
12,"COC(=O)N[C@H]1CC[C@H](Nc2nccc(-n3ncc4c(OCCCS(C)(=O)=O)cccc43)n2)CC1 [Compound 170, (4-{4-[4-(3-methane-sulfonyl-propoxy)-indazol-1-yl]-pyrimidin-2-ylamino}-cyclohexyl)-carbamic acid methyl ester]",226.8 to 227.3 °C
13,"CN([C@H]1CC[C@H](Nc2nccc(-n3ncc4c(OCCCO)cccc43)n2)CC1)S(C)(=O)=O [Compound 178, N-(4-{4-[4-(3-hydroxy-propoxy)indazole-1-yl]-pyrmidin-2-ylamino}-cyclohexyl)-N-methyl-methanesulfonamide]",208.4 to 209 °C
14,"CC(C)(O)[C@H]1CC[C@H](Nc2nccc(-n3ncc4c(OCCCO)cccc43)n2)CC1 [Compound 183, 3-(1-{2-[4-(2-hydroxy-prop-2-yl)-cyclohexyl-amino]-pyrimidin-4-yl}-1H-indazol-4-yloxy)-propan-1-ol]",229.5 to 231 °C
15,"CS(=O)(=O)CCCOc1cccc2c1cnn2-c1ccnc(N[C@H]2CC[C@H](C(=O)N3CCC(O)CC3)CC2)n1 [Compound 184, (4-hydroxy-piperidin-1-yl)-(4-{4-[4-(3-methane-sulfonyl-propoxy)-indazol-1-yl]-pyrimidin-2-ylamino}-cyclohexyl)-methanone]",143 to 145 °C

# Results, then the compound that gave them:
row,melting point,Structure (SMILES)
1,> 300 °C,"CC(O)c1cccc2c1ccn2-c1ccnc(N[C@H]2CC[C@H](NS(=O)(=O)N(C)C)CC2)n1 (stereo partly drawn) [Compound 137, N-(N′,N′-dimethylsulfonamido) N-{4-[4-(1-hydroxyethyl)-indol-1-yl-pyrimidin-2-yl-amino]-cyclohexyl} amine]"
2,119.5 to 121 °C,"CS(=O)(=O)CCOCc1cccc2c1ccn2-c1ccnc(N[C@H]2CC[C@H](O)CC2)n1 [Compound 138, 4-{4-[4-(2-methane-sulfonyl-ethoxymethyl)-indol-1-yl]-pyrimidin-2-ylamino}-cyclohexanol]"
3,208.5 to 209.7 °C,"CC(=O)N[C@H]1CC[C@H](Nc2nccc(-n3ccc4c(COCCS(C)(=O)=O)cccc43)n2)CC1 [Compound 139, N-(4-{4-[4-(2-methane-sulfonyl-ethoxymethyl)-indol-1-yl]-pyrimidin-2-ylamino}-cyclohexyl)-acetamide]"
4,177 to 177.8 °C,"COCCOCc1cccc2c1ccn2-c1ccnc(N[C@H]2CC[C@H](NC(C)=O)CC2)n1 [Compound 140, N-(4-{4-[4-(2-methoxy-ethoxymethyl)-indol-1-yl]-pyrimidin-2-ylamino}-cyclohexyl)-acetamide]"
5,226 to 228 °C,"CC(=O)N[C@H]1CC[C@H](Nc2nccc(-n3ncc4c(OCCCO)cccc43)n2)CC1 [Compound 152, N-(4-{4-[4-(3-hydroxy-propoxy)-indazol-1-yl]-pyrimidin-2ylamino}-cyclohexyl)-acetamide]"
6,154 to 156.5 °C,"COCCOCc1cccc2c1ccn2-c1ccnc(N[C@H]2CC[C@H](N(C)S(C)(=O)=O)CC2)n1 [Compound 160, N-(4-{4-[4-(2-methoxy-ethoxymethyl)-indol-1-yl]-pyrimidin-2-ylamino}-cyclohexyl)-N-methyl-methane-sulfonamide]"
7,149 to 150 °C,"CN([C@H]1CC[C@H](Nc2nccc(-n3ccc4c(C(C)(C)O)cccc43)n2)CC1)S(C)(=O)=O [Compound 161, N-(4-{4-[4-(1-hydroxy-1-methyl-ethyl)-indol-1-yl]-pyrimidin-2-yl-amino}-cyclohexyl)-N-methyl-methane-sulfonamide]"
8,187.8 to 189 °C,"CN([C@H]1CC[C@H](Nc2nccc(-n3ccc4c(CC#N)cccc43)n2)CC1)S(C)(=O)=O [Compound 163, N-{4-[4-(4-cyano-methyl-indol-1-yl)-pyrimidin-2-ylamino]-cyclohexyl}-N-methyl-methanesulfonamide]"
9,216.5 to 217.5 °C,"CN(c1cccc2c1ccn2-c1ccnc(N[C@H]2CC[C@H](C(C)(C)O)CC2)n1)S(C)(=O)=O [Compound 164, N-(1-{2-[4-(1-hydroxy-1-methyl-ethyl)-cyclo-hexylamino]-pyrimidin-4-yl}-1H-indol-4-yl)-N-methyl-methanesulfonamide]"
10,188.2 to 189.2 °C,"CC(C)Oc1cccc2c1cnn2-c1ccnc(N[C@H]2CC[C@H](O)CC2)n1 [Compound 167, 4-[4-(4-isopropoxy-indazol-1-yl)-pyrimidin-2-ylamino]-cyclohexanol]"
11,189 to 190 °C,"CN([C@H]1CC[C@H](Nc2nccc(-n3ccc4c(C(C)(C)C#N)cccc43)n2)CC1)S(C)(=O)=O [Compound 173, N-(4-{4-[4-(2-cyano-prop-2-yl)-indol-1-yl]-pyrimidin-2-ylamino}-cyclohexyl)-N-methyl-methanesulfonamide]"
12,196 to 197 °C,"CC(C#N)c1cccc2c1ccn2-c1ccnc(N[C@H]2CC[C@H](N(C)S(C)(=O)=O)CC2)n1 (stereo partly drawn) [Compound 174, N-(4-{4-[4-(1-cyano-ethyl)-indol-1-yl]-pyrimidin-2-ylamino}-cyclohexyl)-N-methyl-methanesulfonamide]"
13,244 to 245 °C,"CC(=O)N[C@H]1CC[C@H](Nc2nccc(-n3ccc4c(C(C)C#N)cccc43)n2)CC1 (stereo partly drawn) [Compound 175, N-(4-{4-[4-(1-cyano-ethyl)-indol-1-yl]-pyrimidin-2-ylamino}-cyclohexyl)-acetamide]"
14,238 to 239 °C,"CC(=O)N[C@H]1CC[C@H](Nc2nccc(-n3ccc4c(C(C)(C)C#N)cccc43)n2)CC1 [Compound 176, N-(4-{4-[4-(2-cyano-prop-2-yl)-indol-1-yl]-pyrimidin-2-ylamino}-cyclohexyl)-acetamide]"
15,206.9 to 207.6 °C,"CC(C)(O)c1cccc2c1ccn2-c1ccnc(N[C@H]2CC[C@H](N3CCCS3(=O)=O)CC2)n1 [Compound 179, 2-(1-{2-[4-(1,1-dioxo-isothiazolidin-2yl)-cyclohexylamino}-pyrimidin-4-yl}-1H-indol-4-yl)-propan-2-ol]"
16,227.5 to 228.5 °C,"CC(C)(C)OC(=O)N[C@H]1CC[C@H](Nc2nccc(-n3ccc4c(OCCCS(C)(=O)=O)cccc43)n2)CC1 [Compound 181, (4-{4-[4-(3-methane-sulfonyl-propoxy)-indol-1-yl]-pyrimidin-2-ylamino}-cyclohexyl)-carbamic acid t-butyl ester]"
17,> 300 °C,"CN(C)S(=O)(=O)N[C@H]1CC[C@H](Nc2nccc(-n3ccc4c(C5(O)CCOCC5)cccc43)n2)CC1 [Compound 182, N-(4-{4-[4-(4-hydroxy-tetrahydropyran-4-yl)-indol-1-yl]-pyrimidin-2-ylamino}-cyclohexyl)-(N′,N′-dimethylamino)-sulfonamide]"
18,226.5 to 228 °C,"CN([C@H]1CC[C@H](Nc2nccc(-n3ccc4c(CNS(C)(=O)=O)cccc43)n2)CC1)S(C)(=O)=O [Compound 188, N-(4-{4-[4-(methane-sulfonylamino-methyl)-indol-1-yl]-pyrimidin-2-ylamino}-cyclohexyl)-N-methyl-methane-sulfonamide]"
